Measurements as given in patent publication US12281118B2, “Nitrogen-containing fused heterocyclic SHP2 inhibitor compound, preparation method, and use” (SHANGHAI RINGENE BIOPHARMA CO., LTD., priority 2018, dated 2025).
Like-named read-outs stand apart in the source and are kept apart here.

How the values were obtained:
MV4-11 leukemia cells = assay: Inhibition of proliferation of MV4-11 leukemia cells (CellTiter-Glo, 72 h); type: cell-based; details: Homo sapiens, MV4-11, 72 h, read-out: IC50 value, MV4-11 cell proliferation
Experimental: Specific experimental procedures: 1) At Day 0: Inoculating trypsin-digested cells in 96-well plate and suspending the plate in cell culture medium; measure cell density using an automatic cell counter, diluting the cells with the culture medium to appropriate density, adding 100 μl of cell suspension in the 96-well plate, and incubating a cell-free medium as a control well in a cell incubator with […] at 37° C. overnight; 2) Day 1: Treating test compounds of the cells using a drug for a total of 8 concentrations, and diluting at a 3× concentration, wherein 10 μM is a starting test concentration of the test compounds. […] IC50 values are obtained by a four-parameter regression using software attached to the plate reader (the specific results are shown in Table 2).

CYP1A2 = CYP1A2 (Homo sapiens (Human), UniProt P05177); assay: CYP direct inhibition test (DI test) in human liver microsomes; type: in vitro ADME
Experimental: (§1) Direct inhibition test (DI test): Incubating 100 μL of human liver microsomes (final concentration 0.2 mg/mL) containing NADPH (final concentration 1 mM), 10 μM of compound, a positive inhibitor cocktail (ketoconazole 10 μM, quinidine 10 μM, sulfaphenazole 100 μM, a-naphthoflavone 10 μM, and tranylcypromine 1,000 μM), a negative control (BPS containing 0.1% dimethyl sulfoxide) and a mixed probe substrate (midazolam 10 μM, testosterone 100 μM, dextromethorphan 10 μM, diclofenac 20 μM, phenacetin 100 μM, and mephenytoin 100 μM) for direct inhibition, and terminating the reaction after 20 min of the incubation. Calculating the relative enzyme activity by measuring the relative production of metabolites.

[1] = In vivo pharmacokinetic parameters; set-up: AUC: unit not given here; details: plasma, po; for AUC: read-out: Area under the curve AUC; for bioavailability: read-out: Bioavailability F; for half-life: read-out: Half-life T1/2 (converted); for Cmax: read-out: Maximum plasma concentration Cmax
Experimental: Dividing 6 SPF-grade laboratory animals into two groups, and preparing the test compound to a suitable solution or suspension; intravenously administering animals in one group, and orally administering animals in the other group. Collecting blood via jugular vein puncture at approximately 0.2 mL/time point for each sample, anticoagulating with sodium heparin, wherein the time points for blood collection is as follows: pre-dose, and 5, 15 and 30 min, and 1, 2, 4, 6, 8, and 24 h post-dose; placing the collected blood samples on ice, separating plasma by centrifugation (centrifugation conditions: 8,000 rpm, 6 min, 2-8° C.), and storing the collected plasma at −80° C. before analysis. Analyzing plasma samples using LC-MS/MS.
Based on the plasma concentration data of the drug, pharmacokinetic parameters such as AUC0-t, AUC0-∞, MRT0-∞, Cmax, Tmax, T1/2 and Vd of a test sample, as well as mean and standard deviations thereof are calculated using a pharmacokinetic calculation software WinNonlin 5.2 noncompartmental model. In addition, the bioavailability (F) is calculated by the following formula.
For samples with concentrations below the lower limit of quantification, samples taken before reaching Cmax should be calculated as zero for calculations of the pharmacokinetic parameter, and samples taken at sampling points after reaching Cmax should be calculated as non-quantifiable (BLQ) (specific results are shown in Table 3).

CYP3A4 = CYP3A4 (Homo sapiens (Human), UniProt P08684); assay: biochemical; type: in vitro ADME
Experimental: as §1

CYP2C9 = CYP2C9 (Homo sapiens (Human), UniProt P11712); assay: biochemical; type: in vitro ADME
Experimental: as §1

CYP2D6 = CYP2D6 (Homo sapiens (Human), UniProt P10635); assay: biochemical; type: in vitro ADME
Experimental: as §1

CYP2C19 = CYP2C19 (Homo sapiens (Human), UniProt P33261); assay: biochemical; type: in vitro ADME
Experimental: as §1

in vitro = in vitro ADME; details: 1 μM compound
Experimental: Metabolic stability test: Incubating 150 μL of liver microsomes (final concentration 0.5 mg/mL) containing NADPH (final concentration 1 mM), 1 μM of test compound and a positive control midazolam or a negative control atenolol for metabolic stability, terminating the reaction with acetonitrile containing tinidazole at 0 min, 5 min, 10 min and 30 min, respectively, vortexing for 10 min, centrifuging at 15,000 rmp for 10 min, and injecting 50 μL of supernatant into a 96-well plate. Calculating the metabolic stability of the compounds by determining the relative reduction of a parent drug.

CYP2C8 = CYP2C8 (Homo sapiens (Human), UniProt P10632); assay: biochemical; type: in vitro ADME
SHP2 enzyme = SHP2 enzyme (Homo sapiens (Human), UniProt Q06124); assay: Inhibitory activity against SHP2 enzyme (Caliper conversion rate); type: biochemical; details: read-out: SHP2 Enzyme Inhibition IC50 Value
Experimental: (1) Preparing 1×Reaction Buffer according to the BPS Biosciences' Instructions for Use of the SHP2 enzyme. (2) Preparing a compound concentration gradient: Test the test compound at 10 μM under 3× dilution for 10 concentrations, diluting to a 100% dimethyl sulfoxide solution at a 100× final concentration in a 384-well plate, and diluting the compound with Precision 4× for 10 concentrations. Transferring 250 nL of the compound at the 100× final concentration to a target plate OptiPlate-384F using a dispenser Echo 550. […] (3) Preparing the activation peptide solution at a 5× final concentration with the 1×Reaction Buffer, adding 5 μL of the solution to a reaction plate, respectively, and centrifuging at 1000 rpm for 1 min. (4) Preparing an enzyme solution at a 2.5× final concentration with the 1×Reaction Buffer, adding 10 μL of the solution to the reaction plate, respectively, centrifuging at 1000 rpm for 1 min, and incubating at room temperature for 60 min. (5) Preparing a substrate peptide solution at a 2.5× final concentration with the 1×Reaction Buffer, centrifuging at 1000 rpm for 1 min, and incubating at room temperature for 30 min. (6) Adding 30 μL of stop test solution to stop the reaction, centrifuging at 1000 rpm for […], and mixing well by shaking. (7) Reading the conversion rate with a Caliper EZ Reader. (7) Data analysis:
Wherein: Conversion %/_sample is the reading of a conversion rate of a sample; Conversion %_min: mean of negative control wells, which represents the reading of a conversion rate in absence of enzyme activity wells; Conversion %_max: mean of a ratio of positive control wells, which represents the reading of a conversion rate in absence of compound inhibition wells.

[2] = monkey, monkeys liver microsomes

Sequence of CYP2C19 (P33261 whole entry): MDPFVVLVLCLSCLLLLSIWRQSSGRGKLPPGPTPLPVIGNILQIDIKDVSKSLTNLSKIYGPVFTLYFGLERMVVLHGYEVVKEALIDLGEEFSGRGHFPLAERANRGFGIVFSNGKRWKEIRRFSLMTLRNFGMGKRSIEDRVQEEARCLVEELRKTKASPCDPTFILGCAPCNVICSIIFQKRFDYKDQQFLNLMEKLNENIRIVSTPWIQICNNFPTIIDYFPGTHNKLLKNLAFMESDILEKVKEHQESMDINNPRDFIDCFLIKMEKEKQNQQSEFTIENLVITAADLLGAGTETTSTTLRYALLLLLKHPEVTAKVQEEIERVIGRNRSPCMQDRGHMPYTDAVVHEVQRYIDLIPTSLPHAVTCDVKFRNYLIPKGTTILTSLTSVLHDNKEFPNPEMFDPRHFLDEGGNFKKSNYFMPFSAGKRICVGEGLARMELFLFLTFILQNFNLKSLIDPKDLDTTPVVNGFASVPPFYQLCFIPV
Sequence of SHP2 enzyme (Q06124 whole entry): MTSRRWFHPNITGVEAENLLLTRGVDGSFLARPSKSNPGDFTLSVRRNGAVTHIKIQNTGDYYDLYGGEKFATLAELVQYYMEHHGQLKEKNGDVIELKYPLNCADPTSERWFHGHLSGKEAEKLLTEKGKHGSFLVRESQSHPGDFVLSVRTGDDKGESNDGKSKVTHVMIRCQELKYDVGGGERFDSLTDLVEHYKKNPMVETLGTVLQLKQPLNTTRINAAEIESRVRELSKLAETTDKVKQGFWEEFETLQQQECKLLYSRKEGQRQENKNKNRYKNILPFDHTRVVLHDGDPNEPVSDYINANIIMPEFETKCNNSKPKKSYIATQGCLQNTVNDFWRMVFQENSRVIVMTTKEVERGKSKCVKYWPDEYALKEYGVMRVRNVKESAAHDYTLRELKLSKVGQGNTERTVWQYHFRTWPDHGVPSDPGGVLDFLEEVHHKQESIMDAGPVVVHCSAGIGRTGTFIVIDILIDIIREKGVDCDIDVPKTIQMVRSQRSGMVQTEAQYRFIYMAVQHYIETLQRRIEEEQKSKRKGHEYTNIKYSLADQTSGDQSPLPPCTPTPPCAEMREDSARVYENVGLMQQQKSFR
Sequence of CYP1A2 (P05177 whole entry): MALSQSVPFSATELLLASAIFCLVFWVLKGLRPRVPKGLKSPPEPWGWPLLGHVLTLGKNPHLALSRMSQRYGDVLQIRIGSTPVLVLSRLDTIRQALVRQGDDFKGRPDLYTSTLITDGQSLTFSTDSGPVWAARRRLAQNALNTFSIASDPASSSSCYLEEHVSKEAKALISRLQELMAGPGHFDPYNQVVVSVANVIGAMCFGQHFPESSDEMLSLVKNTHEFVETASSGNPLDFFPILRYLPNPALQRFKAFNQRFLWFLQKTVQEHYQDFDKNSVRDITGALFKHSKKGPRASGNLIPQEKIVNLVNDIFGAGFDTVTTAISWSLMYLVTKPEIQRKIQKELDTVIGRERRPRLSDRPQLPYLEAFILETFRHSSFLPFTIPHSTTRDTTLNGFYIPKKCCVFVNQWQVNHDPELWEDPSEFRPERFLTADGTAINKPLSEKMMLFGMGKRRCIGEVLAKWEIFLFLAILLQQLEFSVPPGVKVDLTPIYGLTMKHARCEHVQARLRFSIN
Sequence of CYP3A4 (P08684 whole entry): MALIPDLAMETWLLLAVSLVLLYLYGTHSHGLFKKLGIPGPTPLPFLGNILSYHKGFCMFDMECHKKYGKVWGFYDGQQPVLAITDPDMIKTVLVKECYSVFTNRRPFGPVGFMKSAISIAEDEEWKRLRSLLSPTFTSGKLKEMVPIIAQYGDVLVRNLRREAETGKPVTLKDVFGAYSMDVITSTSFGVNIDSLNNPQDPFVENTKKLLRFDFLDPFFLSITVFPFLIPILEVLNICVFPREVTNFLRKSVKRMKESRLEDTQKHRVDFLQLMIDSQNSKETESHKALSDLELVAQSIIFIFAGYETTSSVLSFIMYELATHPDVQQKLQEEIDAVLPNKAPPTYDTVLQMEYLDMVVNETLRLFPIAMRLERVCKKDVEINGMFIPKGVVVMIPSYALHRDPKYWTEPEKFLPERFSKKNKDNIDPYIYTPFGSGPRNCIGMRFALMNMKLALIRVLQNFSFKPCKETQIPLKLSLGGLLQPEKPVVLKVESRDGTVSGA
Sequence of CYP2C9 (P11712 whole entry): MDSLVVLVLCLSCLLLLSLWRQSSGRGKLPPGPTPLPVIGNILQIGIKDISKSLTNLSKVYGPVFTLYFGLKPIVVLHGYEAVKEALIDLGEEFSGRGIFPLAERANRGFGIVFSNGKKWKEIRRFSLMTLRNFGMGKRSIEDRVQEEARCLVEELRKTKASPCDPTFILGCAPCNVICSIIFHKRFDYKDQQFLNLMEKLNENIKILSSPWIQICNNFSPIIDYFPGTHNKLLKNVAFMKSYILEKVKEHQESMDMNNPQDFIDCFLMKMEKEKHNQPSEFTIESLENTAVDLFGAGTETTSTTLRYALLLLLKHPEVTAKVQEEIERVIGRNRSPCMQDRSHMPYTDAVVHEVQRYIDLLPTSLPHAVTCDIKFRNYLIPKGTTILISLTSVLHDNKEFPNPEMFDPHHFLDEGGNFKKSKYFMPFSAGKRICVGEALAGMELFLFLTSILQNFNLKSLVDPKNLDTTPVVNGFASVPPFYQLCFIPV
Sequence of CYP2D6 (P10635 whole entry): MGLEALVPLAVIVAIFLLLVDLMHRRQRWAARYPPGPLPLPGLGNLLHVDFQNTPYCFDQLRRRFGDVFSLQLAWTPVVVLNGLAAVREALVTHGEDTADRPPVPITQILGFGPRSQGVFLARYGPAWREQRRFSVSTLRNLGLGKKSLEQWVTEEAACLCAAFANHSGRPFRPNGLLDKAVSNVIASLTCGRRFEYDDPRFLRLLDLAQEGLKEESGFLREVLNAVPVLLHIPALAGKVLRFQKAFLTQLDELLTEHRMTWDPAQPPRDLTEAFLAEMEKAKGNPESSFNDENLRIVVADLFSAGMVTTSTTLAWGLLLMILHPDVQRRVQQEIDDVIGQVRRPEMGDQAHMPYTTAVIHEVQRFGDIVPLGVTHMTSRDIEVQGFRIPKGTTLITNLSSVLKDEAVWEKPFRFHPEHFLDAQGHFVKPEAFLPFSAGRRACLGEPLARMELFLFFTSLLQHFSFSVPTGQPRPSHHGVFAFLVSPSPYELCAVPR
Sequence of CYP2C8 (P10632 whole entry): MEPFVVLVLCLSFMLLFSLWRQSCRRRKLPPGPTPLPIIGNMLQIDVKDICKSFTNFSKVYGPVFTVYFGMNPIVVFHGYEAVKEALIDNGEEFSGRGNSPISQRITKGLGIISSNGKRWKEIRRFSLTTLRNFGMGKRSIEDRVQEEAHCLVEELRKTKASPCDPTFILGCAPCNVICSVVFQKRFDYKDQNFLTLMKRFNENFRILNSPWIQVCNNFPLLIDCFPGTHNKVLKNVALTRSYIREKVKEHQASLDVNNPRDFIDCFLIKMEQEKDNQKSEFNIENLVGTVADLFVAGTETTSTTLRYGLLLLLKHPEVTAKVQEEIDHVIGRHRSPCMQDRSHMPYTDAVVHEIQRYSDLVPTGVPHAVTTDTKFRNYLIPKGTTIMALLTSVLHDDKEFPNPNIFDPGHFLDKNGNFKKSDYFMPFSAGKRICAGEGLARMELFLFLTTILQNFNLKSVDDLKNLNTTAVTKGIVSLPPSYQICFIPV

| SMILES | IC50 (MV4-11 leukemia cells) [µM] | IC50 (CYP1A2) [µM] | AUC ([1]; Mouse, 5 mg/kg) | bioavailability ([1]; Mouse, 5 mg/kg) [%] | half-life ([1]; Mouse, 5 mg/kg) [h] | Cmax ([1]; Mouse, 5 mg/kg) [nM] | IC50 (CYP3A4) [µM] | IC50 (CYP2C9) [µM] | IC50 (CYP2D6) [µM] | IC50 (CYP2C19) [µM] | half-life at 1 μM (in vitro; dog, dogs liver microsomes) [h] | half-life at 1 μM (in vitro; human liver microsomes) [h] | half-life at 1 μM (in vitro; [2]) [h] | half-life at 1 μM (in vitro; mouse, mice liver microsomes) [h] | half-life at 1 μM (in vitro; rat, rats liver microsomes) [h] | IC50 (CYP2C8) [µM] | IC50 (SHP2 enzyme) [µM] | other results |
| --- | --- | --- | --- | --- | --- | --- | --- | --- | --- | --- | --- | --- | --- | --- | --- | --- | --- | --- |
| Cc1nc(N2CCC3(CC2)Cc2ccccc2[C@H]3N)n2ccnc2c1Sc1ccnc(N)c1Cl [Example 1, (S)-1′-(8-((2-amino-3-chloropyridin-4-yl)thio)-7-methylimidazo [1,2-c]pyrimidin-5-yl)-1,3-dihydrospiro [indene-2,4′-piperidine]-1-amine] | 0.011 | > 25 | 5840 | 61 | 11.8 | 306 | > 25 | > 25 | > 25 | > 25 | > 1 | > 1 | > 1 | > 1 | > 1 | > 25 | 0.0044 | AUC ([1]; Beagle Dog, 5 mg/kg): 18200; bioavailability ([1]; Beagle Dog, 5 mg/kg): 162%; half-life ([1]; Beagle Dog, 5 mg/kg): 10.9 h; Cmax ([1]; Beagle Dog, 5 mg/kg): 907 nM; bioavailability ([1]; Rat, 5 g/kg (so in the source)): 64%; half-life ([1]; Rat, 5 g/kg (so in the source)): 22.3 h; Cmax ([1]; Rat, 5 g/kg (so in the source)): 211 nM; AUC ([1]; Rat, (so in the source)): 3540 |
| Nc1nccc(Sc2c(N)nc(N3CCC4(CC3)Cc3ccccc3[C@H]4N)n3ccnc23)c1Cl [Example 4, (S)-1′-(7-amino-8-((2-amino-3-chloropyridin-4-yl)thio)imidazo [1,2-c]pyrimidin-5-yl)-1,3-dihydrospiro [indene-2,4′-piperidine]-1-amine] | 0.0047 | > 25 | 557 | 20 | 10.9 | 79 | > 25 | > 25 | > 25 | > 25 | > 1 | > 1 | > 1 | > 1 | > 1 | > 25 | 0.0019 |  |
